According to EP1566177A1, “The use of bisphosphonates for treating skin by stimulating of collagen synthesis” (Tigen Biotech Co., Ltd., priority 2004, dated 2005):

Key:
Type in all cases: cell-based
[1] = test system: fibroblasts isolated from human dermis; test: Western blot analysis of type 1 collagen expression, two-dimensional culture of dermal fibroblasts
From the text: The levels of type 1 collagen in the 3-week cultured control group (3WC) and the 3-week cultured test group (3WR), which had been collected in Example 1-2), were compared with each other. For this purpose, each sample was subjected to Western blot analysis. In the Western blot analysis, each sample was electrophoresed on 8% SDS-PAGE gel, and the resulting collagen band was transferred to a nitrocellulose membrane and then treated with type 1 collagen monoclonal antibody (Abcam, Cambridge, UK) (see FIG. 2). In the Western blot analysis, actin was also used as a positive control group.
Fibroblasts were isolated from skin dermis and subcultured, in the same manner as in Example 2. Then, the isolated fibroblasts were cultured in the second culture medium as described above under the same conditions for 2 days. Then, the cultured fibroblasts were supplied with a second culture medium containing 100 nM pamidronate at 3-day intervals and cultured in the medium for each period of 1 week, 2 weeks and 3 weeks. […]
RT-PCR on each of the 1-week, 2-week and 3-week cultured control groups, the 1-week, 2-week and 3-week cultured test group administered with pamidronate, and the 1-week, 2-week and 3-week cultured positive control group administered with vitamin. […] The mRNA levels of type 1 collagen in the samples, as measured in the RT-PCR reactions, were shown in FIG. 4 for comparison with each other. […]

[2] = test system: fibroblasts isolated from human dermis; test: RT-PCR analysis of type 1 collagen mRNA level, two-dimensional culture of dermal fibroblasts
Description: Namely, total mRNA to be used in cDNA synthesis was isolated from the cells of the control and test groups using an RNeasy mini kit (QIAGEN, CA, USA). Then, the amount of the isolated total mRNA was calculated by measuring the absorbance at 260nm/280nm using an UV spectrophotometer (Eppendorf, Hamburg, Germany), thus quantifying the extracted mRNA and determining its purity (data not shown). Thereafter, 0.5 µg of the total mRNA was reacted with reverse transcriptase (Promega, WI, USA) using an oligo d(T) primer for one hour at 42 °C and for 5 minutes at 95 °C, and then the reaction was stopped at 4°C, thus synthesizing cDNA. The synthesized cDNA template was subjected to polymerase chain reaction (hereinafter, referred to as "PCR") using complementary primers of 5'-[sequence]-3' (SEQ ID NO: 1) (sense) and 5'-[sequence]-3' (SEQ ID NO: 2) (anti-sense). In the RT-PCR reaction, water was added to a reaction mixture of 0.5 µl of the template, 0.7 µl of each primer (10 pmole/µl) and PCR premix (Bioneer, Korea) to a final volume of 20 µl, and then, the aqueous mixture was pre-denatured at 94°C for 5 minutes using a thermal cycler and then subjected to 25 PCR cycles (each cycle consisting of 30 seconds at 94 °C, 30 seconds at 58 °C, and 30 seconds at 72 °C). Also, in the RT-PCR reaction, glyceraldehyde-3-phosphate dehydrogenase (GAPDH) was used as a positive control.
Then, the isolated fibroblasts were cultured in the second culture medium as described above under the same conditions for 2 days. Then, the cultured fibroblasts were supplied with a second culture medium containing 100 nM pamidronate at 3-day intervals and cultured in the medium for each period of 1 week, 2 weeks and 3 weeks. Also, fibroblasts cultured in a second culture medium containing 1mM vitamin C were used as a positive control group, and fibroblasts cultured in a secondary culture medium containing no vitamin C and pamidronate was used as a control group. […]

[3] = test system: fibroblasts isolated from human oral epithelium; test: Western blot analysis of type 1 collagen protein level, two-dimensional culture of oral fibroblasts; details: 100 ng/ml pamidronate together with 1mM vitamin C; 3-week culture (3WR) vs control (3WC)
Description: (§1) The epithelium naturally exuded from a patient who had been undergoing a surgical operation due to oral diseases was mixed with […] DMEM (LG-DMEM, glucose 1g/L, GIBCO, MO, USA) medium, a first culture medium, and the mixture was pre-centrifuged to isolate cells. The cells were ultra-centrifuged using Percoll solution (SIGMA, MD, USA), thus isolating only nucleated cells. The nucleated cells isolated as described above cultured in an incubator under conditions of 5% (v/v) CO2 and 37.5 °C while replacing a second culture medium (high-glucose DMEM medium containing 10% bovine fetal serum) at two-day intervals, and only fibroblasts were isolated from the culture medium.
The isolated fibroblasts were cultured in said second culture medium under the same conditions for 2 days to saturate them. Then, the saturated fibroblasts were cultured in a second culture medium containing 1mM vitamin C and 100 ng/ml pamidronate (Hanlim Pharm. Co., Ltd., Korea) for each period of 1 week, 2 weeks and 3 weeks, while replacing the medium at 3-day intervals. As a control group, a second culture medium containing no vitamin C and pamidronate was used.
The levels of type 1 collagen in the 3-week cultured control group (3WC) and the 3-week cultured test group (3WR), which had been collected in Example 1-2), were compared with each other. […]

[4] = test system: fibroblasts isolated from human oral epithelium; test: RT-PCR analysis of type 1 collagen mRNA level, two-dimensional culture of oral fibroblasts; details: 100 ng/ml pamidronate together with 1mM vitamin C; cultured 1, 2 and 3 weeks (1WR, 2WR, 3WR) vs control medium without both
Description: as §1
The isolated fibroblasts were cultured in said second culture medium under the same conditions for 2 days to saturate them. […]
The collagen mRNA levels of the 1-week cultured control group (1WC), the 2-week cultured control group (2WC), the 3-week cultured control group (3WC), the 1-week cultured test group (1WR), the 2-week cultured test group (2WR) and the 3-week cultured group (3WR), which had been collected in Example 1-2), were measured and compared with each other. […]

[5] = test system: fibroblasts isolated from human dermis; test: Three-dimensional culture of dermal fibroblasts on PLGA support, haematoxylin-eosin staining of collagen layer; details: 100 nM pamidronate together with 1 mM vitamin C; 4 weeks; control: vitamin C alone
Description: A given amount of dermal tissue was excised from the skin of three normal persons. The excised human dermis from which an epidermal and fatty layer had been removed was finely cut and treated with collagenase so as to isolate dermis from epidermis. The isolated dermal tissue was cultured in 0.25% trypsin solution at 36 °C for 10 minutes. Then, the culture broth was vortexed to isolate fibroblasts. The isolated cells were collected and washed, and then cultured in a DMEM medium (GIBCO, MO, U.S.A.) containing 10% fetal bovine serum (FBS). At about 70% confluence, they were subcultured.
A PLGA-based, disc-shaped polymer support (Innotech., Korea) with a diameter of 10 mm, a thickness of 3 mm, an average pore size of 300-500 µm and a porosity of 90%, was used in three-dimensional culture. The support was treated with 100 %(v/v), 90 %(v/v), 70 %(v/v) and then 10 %(v/v) ethanol in order, at 4 °C for each treatment, and washed with PBS (phosphate buffered saline) and a second culture medium followed by drying. Next, 100 µl of a suspension of 1 x 10^6 dermal fibroblasts cultured as described above was plated on the support and cultured in a culture dish with a diameter of 60 mm. After two hours, 6 ml of the second culture medium as described above was added to the cells, and the mixture was cultured in a shaking incubator (30rpm). […]

For `NCCCC(O)(P(=O)(O)O)P(=O)(O)O` [alendronate, 4-amino-1-hydroxybutylidene-1,1-bisphospnonic acid], which “type 1 collagen protein (Western blot)” value ([1]; alendronate alone, same concentration as pamidronate (100 nM), cultured one week, FIG. 7) is on record?
The value was “remarkably increased”.

And the “mRNA level of type 1 collagen” value ([2]; alendronate alone, same concentration as pamidronate (100 nM), cultured one week, FIG. 6)?
The value was “remarkably increased”.

How did the “type 1 collagen protein level” value [3] turn out when `NCCC(O)(P(=O)(O)O)P(=O)(O)O` [pamidronate, 3-amino-1-hydroxypropylidene-1,1-bisphosphonic acid] was run?
Its value is “synthesized at a remarkably high level”.

What about the “mRNA level of type 1 collagen” value [4] of the same compound?
Its value is “higher mRNA level than that of the 3-week cultured control group”.

What about the “expression level of type 1 collagen” value ([1]; 100 nM pamidronate alone, three weeks of culture, compared with single addition of 1mM vitamin C) of the same compound?
Its value is “remarkable increase”.

What about the “mRNA level of type 1 collagen” value ([2]; 100 nM pamidronate alone, cultured 1, 2 and 3 weeks) of the same compound?
The value was “high regardless of culture period”.

What about the “layer of collagen adhered to the surface of the PLGA support” value [5] of the same compound?
Its value is “much thicker than the case of addition of vitamin C alone”.

How did the “mRNA level of type 1 collagen” value ([2]; 1mM vitamin C alone (positive control), cultured 1, 2 and 3 weeks) turn out when `O=C1O[C@H]([C@@H](O)CO)C(O)=C1O` [vitamin C] was run?
The value was “increased rapidly in the initial stage of culture, but it was reduced with an increase in culture time”.
